Data reported in patent publication US20220348549A1 (Hoffmann-La Roche Inc., priority 2019, published 2022).

Tested on: HBV cccDNA (HBeAg level in HepDES19 cells)
Test: Engineered HepDES19 primary screen assay (HBeAg ELISA as surrogate marker for cccDNA)
Format: cell-based
Conditions: Hepatitis B virus, HepDES19, 120 h
Excerpt: The assay was employed to screen for novel HBV cccDNA inhibitors. HepDES19 is a HBV cccDNA-producing cell line. In this cell line, HBeAg in the cell culture supernatant as surrogate marker, as HBeAg production depends on cccDNA level and activity. HepDES19 is an engineered cell line which contains a 1.1 unit length HBV genome, and pgRNA transcription from the transgene is controlled by Tetracycline (Tet). In the absence of Tet, pgRNA transcription will be induced, but HBV e antigen (HBeAg) could not be produced from this pgRNA due to very short leader sequence before the HBeAg start codon and the start codon is disrupted. Only after cccDNA is formed, the missing leader sequence and start codon mutation would be restored from the 3′-terminal redundancy of pgRNA, and then HBeAg could be synthesized. Therefore, HBeAg could be used as a surrogate marker for cccDNA (Zhou, T. et al., Antiviral Res. (2006), 72(2), 116-124; Guo, H. et al., J. Virol. (2007), 81(22), 12472-12484).
HepDES19 cells were seeded at 2×10^6 cells per T150 flask and cultured with the culture medium (Dulbecco's Modified Eagle Medium: Nutrient Mixture F-12 [DMEM-F12, Gibco Cat. 11320-82], 10% Fetal Bovine Serum [FBS, Clontech Cat. 631101], 0.1 mM Non-Essential Amino Acids Solution [NEAA, Gibco Cat. 11140-050], 50 μg/mL Penicillin-Streptomycin [PS, Invitrogen Cat. 15140-163], 500 μg/mL Geneticin [G418, Invitrogen Cat. 10131-027]) containing 3 μg/mL Tet (Sigma, Cat. 87128) for 5 days. Cells were then seeded at 4×10^6 cells per T150 in the same culture medium as described above in the absence of Tet for 8 days. Cells were then harvested and frozen at density of 2×10^6 cells per mL. For compound testing, the frozen cells were thawed and seeded into 96-well plates at a density of 6×10^4 cells per well. At 24 hrs after seeding, half log serial dilutions of compounds made with Dimethyl sulfoxide (DMSO, Sigma, Cat. D2650) were further diluted with the same culture medium as described above before they were added to the cells to reach desired final compound concentrations and 1% DMSO concentration. Plates were then incubated at 37° C. for another 5 days before measurement of HBeAg level and cell viability. Intracellular HBeAg level were measured with enzyme-linked immunosorbent assay (ELISA) kit (Shanghai Kehua Diagnostic Medical Products Co., Ltd). Cell viability was assessed using Cell Counting Kit-8 (Donjindo, Cat. CK04-20). IC50 values were derived from the dose-response curve using 4 parameter logistic curve fit method.
The compounds of the present invention were tested for their capacity to inhibit extracellular HBeAg level as described herein.

`O=C(c1nc(-c2ccc(Br)cc2)nc2cc(C(F)(F)F)ccc12)N1CCOCC1` [Example 44, [2-(4-Bromophenyl)-7-(trifluoromethyl)quinazolin-4-yl]-morpholino-methanone] showed an IC50 of 8.7 µM.

`O=C(O)c1nc(-c2ccc(Cl)nc2)nc2c(Cl)cccc12` [Example 45, 8-Chloro-2-(6-chloro-3-pyridyl)quinazoline-4-carboxylic acid] gave an IC50 of 0.66 µM.

With `NC(=O)c1nc(-c2ccc(Cl)nc2)nc2c(Cl)cccc12` [Example 46, 8-chloro-2-(6-chloro-3-pyridyl)quinazoline-4-carboxamide] the IC50 was 0.11 µM.

`CCOc1ccc(-c2nc(C(=O)O)c3cccc(Cl)c3n2)cn1` [Example 48, 8-Chloro-2-(6-ethoxy-3-pyridyl)quinazoline-4-carboxylic acid] was tested, and the IC50 was 7.57 µM.

`O=C(O)c1nc(-c2ccc(N3CCCC3)nc2)nc2c(Cl)cccc12` [Example 49, 8-Chloro-2-(6-pyrrolidin-1-yl-3-pyridyl)quinazoline-4-carboxylic acid] was tested, and the IC50 was 11 µM.

`O=C(O)c1nc(-c2ccc(OCCO[C@H]3C[C@@H](C(=O)O)C3)nc2)nc2c(Cl)cccc12` [Example 50, cis-2-[6-[2-(3-Carboxycyclobutoxy)ethoxy]-3-pyridyl]-8-chloro-quinazoline-4-carboxylic acid] showed an IC50 of 15 µM.

For `O=C(O)COCCOc1ccc(-c2ncc3cccc(Cl)c3n2)cn1` [Example 51, 2-[2-[[5-(8-Chloroquinazolin-2-yl)-2-pyridyl]oxy]ethoxy]acetic acid], the IC50 was 4.86 µM.

`O=C(NCCO)c1nc(-c2ccc(Cl)nc2)nc2c(Cl)cccc12` [Example 52, 8-Chloro-2-(6-chloro-3-pyridyl)-N-(2-hydroxyethyl)quinazoline-4-carboxamide] gave an IC50 of 0.16 µM.

In the case of `O=C(c1nc(-c2ccc(Cl)nc2)nc2c(Cl)cccc12)N1CCOCC1` [Example 53, [8-Chloro-2-(6-chloro-3-pyridyl)quinazolin-4-yl]-morpholino-methanone], the IC50 is reported as 0.083 µM.

`O=C(O)[C@H]1C[C@@H](OCCOc2ccc(-c3nc(O)c4cccc(Cl)c4n3)cn2)C1` [Example 54, cis-3-[2-[[5-(8-Chloro-4-hydroxy-quinazolin-2-yl)-2-pyridyl]oxy]ethoxy]cyclobutanecarboxylic acid] gave an IC50 of 3.42 µM.

With `COc1nc(-c2ccc(OCCOC3CC(C(=O)O)C3)cc2)nc2c(Cl)cccc12` (stereo not drawn) [Example 55, 3-(2-(4-(8-Chloro-4-methoxyquinazolin-2-yl)phenoxy)ethoxy)cyclobutanecarboxylic acid] the IC50 was 0.026 µM.

`O=C(O)C1CC(OCCOc2ccc(-c3nc(C(F)(F)F)c4cccc(Cl)c4n3)cc2)C1` (stereo not drawn) [Example 56, 3-[2-[4-[8-chloro-4-(trifluoromethyl)quinazolin-2-yl]phenoxy]ethoxy]cyclobutanecarboxylic acid] showed an IC50 of 7.86 µM.
